The record followed here is ChEMBL document CHEMBL5113462, “Synthesis and evaluation of inhibitors of Mycobacterium tuberculosis UGM using bioisosteric replacement” (Bioorg Med Chem, 2022).

Usually MIC stands for the smallest concentration in the dilution series that meets the test's criterion for growth inhibition. A low value points to greater potency.

The test has as its system Mycobacterium tuberculosis variant bovis. In words: Antimycobacterial activity against Mycobacterium tuberculosis variant bovis BCG for 7 days by resazurin-based microdilution assay. Format: functional. As to conditions: 168 h, time 7 day. (In general: Alamar Blue is a resazurin reagent that responds to reducing activity.)

`O=C(/C=C/c1ccccc1)N[C@@H](Cc1ccccc1)C(=O)O` came in with an MIC of more than 400 µg/mL.
With `O=C(/C=C/c1ccccc1)N[C@@H](Cc1ccc(I)cc1)C(=O)O` the figure was 237 µM.
The result for `O=C(/C=C/c1ccccc1)N[C@@H](Cc1ccc([N+](=O)[O-])cc1)C(=O)O` reads 1270 µM.
With `O=C(/C=C/c1ccccc1)N[C@@H](Cc1ccc(Cl)cc1)C(=O)O` the figure was 606 µM; with `O=C(/C=C/c1ccccc1)N[C@@H](Cc1ccc(Br)cc1)C(=O)O`, 1070 µM; with `CC[C@@H](CO)NCCN[C@@H](CC)CO` [ETHAMBUTOL], 4.9 µM.
